The first data set can be described thus: Solubility test in low-polarity solvents (saturated solution, λmax, solubility, εC). The class given is physicochemical. The note with it: Isopar G. The method, then: The solubility of each dye in n-decane, tetradecane, Isopar M, Isopar G, and decalin was examined in the following manner. Each dye was added to each solvent until a dissolution residue came to remain, and this mixture was subjected to a 30-minute ultrasonic treatment at 30 degrees. The resultant mixture was allowed to stand at 5° C. for 24 hours and then subjected to centrifugal filtration (centrifugal force, 5,200×g) with a 0.1-μm filter using a microcentrifuge. The saturated solution obtained was diluted to an adequate concentration, and the solubility of each dye was calculated from a relationship with an extinction coefficient determined beforehand. Furthermore, the value of the product of the molar extinction coefficient ε (Lmol^−1cm^−1) and the concentration C (molL^−1) of the saturated solution, εC, was determined.
Sudan Black B (manufactured by Tokyo Kasei Kogyo Co., Ltd.), which is a commercial oil-soluble black dye, was added to n-decane until a dissolution residue came to remain, and this mixture was subjected to a 30-minute ultrasonic treatment at 30 degrees. The resultant mixture was allowed to stand at 5° C. for 24 hours and then subjected to centrifugal filtration (centrifugal force, 5,200×g) with a 0.1-μm filter using a microcentrifuge. The saturated n-decane solution obtained was diluted to an adequate concentration, and the solubility of the dye was calculated from a relationship with an extinction coefficient determined beforehand.
`CCCCC(CC)CN(CC(CC)CCCC)c1ccc(/N=N/c2snc(C)c2C#N)c(NC(=O)CC)c1` (centres unmarked) [Dye 9] yielded a εC of 11500 cm⁻¹.

Still in this data set, the particulars now being: Isopar G solution.
As to `CCCCC(CC)CN(CC(CC)CCCC)c1ccc(/N=N/c2snc(C)c2C#N)c(NC(=O)CC)c1` (centres unmarked) [Dye 9], the “λmax (absorption-maximum wavelength)” value came to 543 nm.

The same data set, now with this note: Isopar G; saturated solution.
Molecule `CCCCC(CC)CN(CC(CC)CCCC)c1ccc(/N=N/c2snc(C)c2C#N)c(NC(=O)CC)c1` (centres unmarked) [Dye 9] showed a Solubility of 13.3%.

Staying with this data set, now noted: Isopar M.
Regarding `CCCCC(CC)CN(CC(CC)CCCC)c1ccc(/N=N/c2snc(C)c2C#N)c(NC(=O)CC)c1` (centres unmarked) [Dye 9], the εC worked out at 8900 cm⁻¹.

Staying with this data set, now noted: Isopar M solution.
Regarding `CCCCC(CC)CN(CC(CC)CCCC)c1ccc(/N=N/c2snc(C)c2C#N)c(NC(=O)CC)c1` (centres unmarked) [Dye 9], the “λmax (absorption-maximum wavelength)” value came out at 544 nm.

The data set is the same for the next values; noted with them: Isopar M; saturated solution.
For the molecule `CCCCC(CC)CN(CC(CC)CCCC)c1ccc(/N=N/c2snc(C)c2C#N)c(NC(=O)CC)c1` (centres unmarked) [Dye 9], the Solubility was found to be 9.8%.

The data set is the same for the next values; noted with them: decalin.
On to `CCCCC(CC)CN(CC(CC)CCCC)c1ccc(/N=N/c2snc(C)c2C#N)c(NC(=O)CC)c1` (centres unmarked) [Dye 9], for which the εC stood at 8500 cm⁻¹.

Staying with this data set, now noted: decalin solution.
`CCCCC(CC)CN(CC(CC)CCCC)c1ccc(/N=N/c2snc(C)c2C#N)c(NC(=O)CC)c1` (centres unmarked) [Dye 9]: the “λmax (absorption-maximum wavelength)” value is recorded as 547 nm.

The same data set, now with this note: decalin; saturated solution.
`CCCCC(CC)CN(CC(CC)CCCC)c1ccc(/N=N/c2snc(C)c2C#N)c(NC(=O)CC)c1` (centres unmarked) [Dye 9] gave a Solubility of 9.1%.

The data set is the same for the next values; noted with them: n-decane.
In the case of `CCc1nsc(N=Nc2ccc(N(CC(C)C)CC(C)C)cc2NC(C)=O)c1C#N` [Dye 1], the “εC (molar extinction coefficient × concentration of saturated solution)” value worked out at 1000 cm⁻¹.
On to `CCCCC(CC)CN(CC(CC)CCCC)c1ccc(N=Nc2sc(C(=O)OCC)c(C)c2C(=O)OCC)c(NC(C)=O)c1` (centres unmarked) [Dye 3], for which the “εC (molar extinction coefficient × concentration of saturated solution)” value amounted to 1300 cm⁻¹.
Consider `CCCCCCCCN(CC(CC)CCCC)c1ccc(/N=N/c2snc(C)c2C#N)c(C)c1` (centres unmarked) [Dye 5], for which the “εC (molar extinction coefficient × concentration of saturated solution)” value came out at 1300 cm⁻¹.
Consider `CCCCC(CC)CN(CC(CC)CCCC)c1ccc(/N=N/c2sc(C(=O)OCC)c(C)c2C(=O)OCC)c(C)c1` (centres unmarked) [Dye 6], for which the “εC (molar extinction coefficient × concentration of saturated solution)” value is 3200 cm⁻¹.
Regarding `CCCCC(CC)CN(CC(CC)CCCC)c1ccc(/N=N/c2snc(C)c2C#N)c(NC(=O)CC)c1` (centres unmarked) [Dye 9], the “εC (molar extinction coefficient × concentration of saturated solution)” value came out at 11000 cm⁻¹.

Staying with this data set, now noted: n-decane solution.
For the molecule `CCc1nsc(N=Nc2ccc(N(CC(C)C)CC(C)C)cc2NC(C)=O)c1C#N` [Dye 1], the “λmax (absorption-maximum wavelength)” value stood at 538 nm.
On to `CCCCC(CC)CN(CC(CC)CCCC)c1ccc(N=Nc2sc(C(=O)OCC)c(C)c2C(=O)OCC)c(NC(C)=O)c1` (centres unmarked) [Dye 3], for which the “λmax (absorption-maximum wavelength)” value came out at 537 nm.
Take `CCCCCCCCN(CC(CC)CCCC)c1ccc(/N=N/c2snc(C)c2C#N)c(C)c1` (centres unmarked) [Dye 5]: the “λmax (absorption-maximum wavelength)” value is on record as 523 nm.
The same measure, in the same setting: the result for `CCCCC(CC)CN(CC(CC)CCCC)c1ccc(/N=N/c2sc(C(=O)OCC)c(C)c2C(=O)OCC)c(C)c1` (centres unmarked) [Dye 6] reads 504 nm; that for `CCCCC(CC)CN(CC(CC)CCCC)c1ccc(/N=N/c2snc(C)c2C#N)c(NC(=O)CC)c1` (centres unmarked) [Dye 9], 543 nm.

Staying with this data set, now noted: n-decane; saturated solution, stood at 5° C. for 24 hours, 0.1-μm filter.
`CCc1nsc(N=Nc2ccc(N(CC(C)C)CC(C)C)cc2NC(C)=O)c1C#N` [Dye 1] registered a Solubility of 1.1%.
`CCCCC(CC)CN(CC(CC)CCCC)c1ccc(N=Nc2sc(C(=O)OCC)c(C)c2C(=O)OCC)c(NC(C)=O)c1` (centres unmarked) [Dye 3] gave a Solubility of 2.4%.
The same measure, in the same setting: the same measure for `CCCCCCCCN(CC(CC)CCCC)c1ccc(/N=N/c2snc(C)c2C#N)c(C)c1` (centres unmarked) [Dye 5]: 2.1%; for `CCCCC(CC)CN(CC(CC)CCCC)c1ccc(/N=N/c2sc(C(=O)OCC)c(C)c2C(=O)OCC)c(C)c1` (centres unmarked) [Dye 6]: 8.4%.
As for `CCCCC(CC)CN(CC(CC)CCCC)c1ccc(/N=N/c2snc(C)c2C#N)c(NC(=O)CC)c1` (centres unmarked) [Dye 9], the Solubility was found to be 13%.

The data set is the same for the next values; noted with them: tetradecane.
The molecule `CCCCC(CC)CN(CC(CC)CCCC)c1ccc(/N=N/c2snc(C)c2C#N)c(NC(=O)CC)c1` (centres unmarked) [Dye 9] registered a εC of 7400 cm⁻¹.

The same data set, now with this note: tetradecane solution.
On to `CCCCC(CC)CN(CC(CC)CCCC)c1ccc(/N=N/c2snc(C)c2C#N)c(NC(=O)CC)c1` (centres unmarked) [Dye 9], for which the “λmax (absorption-maximum wavelength)” value stood at 544 nm.

Still in this data set, the particulars now being: tetradecane; saturated solution.
As for `CCCCC(CC)CN(CC(CC)CCCC)c1ccc(/N=N/c2snc(C)c2C#N)c(NC(=O)CC)c1` (centres unmarked) [Dye 9], the Solubility was found to be 8.5%.

A further data set is described as follows: Light fastness test (retention of dye after 2 hours of high-pressure mercury lamp irradiation). In kind it is physicochemical. The note with it: n-decane; 1 mg in 250 mL, 2 hours irradiation, 400-W high-pressure mercury lamp. The method, then:
The light fastness of each dye was examined in the following manner. One milligram of each dye was dissolved in 250 mL of each of n-decane, tetradecane, Isopar M, and Isopar G, and the solution was irradiated with light for 2 hours using photoreaction apparatus UVL-400HA (400-W high-pressure mercury lamp), manufactured by Riko-Kagaku Sangyo Co., Ltd. During the irradiation, the vessel was cooled with a coolant to keep the internal temperature at 10-30° C. The retention of the dye was determined through the following calculation to evaluate the light fastness. Retention of dye=(absorbance at absorption-maximum wavelength after irradiation)/(absorbance at absorption-maximum wavelength before irradiation)
With `CCc1nsc(N=Nc2ccc(N(CC(C)C)CC(C)C)cc2NC(C)=O)c1C#N` [Dye 1], the “Light fastness: retention of dye” value is recorded as 97%.
Take `CCCCC(CC)CN(CC(CC)CCCC)c1ccc(N=Nc2sc(C(=O)OCC)c(C)c2C(=O)OCC)c(NC(C)=O)c1` (centres unmarked) [Dye 3]: the “Light fastness: retention of dye” value is 92%.

The values above are taken from patent US8747537B2, “Ink containing heterocyclic azo dye, and dye for use in said ink” (Mitsubishi Chemical Corporation, priority 2010, dated 2014).
